Assays:
[1] = target: T1, Muscarinic acetylcholine receptor M1 (Homo sapiens) (UniProt P11229)
T1 sequence (whole entry): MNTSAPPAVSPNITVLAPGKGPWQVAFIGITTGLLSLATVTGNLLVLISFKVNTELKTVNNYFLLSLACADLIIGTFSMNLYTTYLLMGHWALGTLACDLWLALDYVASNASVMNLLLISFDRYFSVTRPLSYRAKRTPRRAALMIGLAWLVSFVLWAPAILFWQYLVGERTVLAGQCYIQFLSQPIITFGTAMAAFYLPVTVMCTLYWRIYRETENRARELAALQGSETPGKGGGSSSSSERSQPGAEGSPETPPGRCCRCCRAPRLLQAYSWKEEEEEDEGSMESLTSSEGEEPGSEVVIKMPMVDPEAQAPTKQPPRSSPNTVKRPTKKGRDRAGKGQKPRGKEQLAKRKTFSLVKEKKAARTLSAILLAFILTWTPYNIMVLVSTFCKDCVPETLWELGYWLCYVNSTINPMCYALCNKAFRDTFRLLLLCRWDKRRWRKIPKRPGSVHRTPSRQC
Description: Apparent dissociation constant for human muscarinic receptor M1 from FRET binding assay

[2] = target: T1, Muscarinic acetylcholine receptor M1 (Homo sapiens); experiment: Dissociation rate constant for human muscarinic receptor at 500 nM with 100 uM brucine
[3] = target: T2, Muscarinic acetylcholine receptor M1 (Homo sapiens, UniProt P11229); experiment: Inhibition of [3H]QNB binding to human muscarinic receptor M1
T2 sequence (P11229 whole entry): T1 sequence (whole entry)

[4] = target: T1, Muscarinic acetylcholine receptor M1 (Homo sapiens); experiment: Dissociation rate constant for human muscarinic receptor at 500 nM with 500 uM brucine
[5] = target: T2, Muscarinic acetylcholine receptor M1; experiment: Apparent dissociation constant for human muscarinic receptor M1 from FRET based binding assay
[6] = target: T1, Muscarinic acetylcholine receptor M1 (Homo sapiens); conditions: 300 nM
Description: Dissociation rate constant for human muscarinic receptor at 300 nM with 100 uM brucine

[7] = target: T1, Muscarinic acetylcholine receptor M1 (Homo sapiens); conditions: 300 nM; remark: listed apart in the source
Description: Dissociation rate constant for human muscarinic receptor at 300 nM with 500 uM brucine

[8] = target: T1, Muscarinic acetylcholine receptor M1 (Homo sapiens); conditions: 100 nM
Description: Dissociation rate constant for human muscarinic receptor at 100 nM with 100 uM brucine

[9] = target: T1, Muscarinic acetylcholine receptor M1 (Homo sapiens); conditions: 100 nM; remark: listed apart in the source
Description: Dissociation rate constant for human muscarinic receptor at 100 nM with 500 uM brucine

[10] = target: T1, Muscarinic acetylcholine receptor M1 (Homo sapiens); experiment: Dissociation rate constant for human muscarinic receptor at 200 nM with 100 uM brucine
[11] = target: T1, Muscarinic acetylcholine receptor M1 (Homo sapiens); experiment: Dissociation rate constant for human muscarinic receptor at 200 nM with 500 uM brucine

`CCN(CC)c1ccc2c(-c3ccc(S(=O)(=O)NCCCCCC(=O)NCCOCCOCCN4CCN(CC(=O)N5c6ccccc6C(=O)Nc6cccnc65)CC4)cc3S(=O)(=O)[O-])c3ccc(=[N+](CC)CC)cc-3oc2c1` was tested, and the E [1] was 0.68, the Dissociation rate constant [2] was 0.00062 1/S and the Ki [3] was 53.5 nM. For the same compound, the Dissociation rate constant [4] was 0.00051 1/S and the Kd [5] was 18.7 nM.

For `CCN1/C(=C/C=C/C2N(CCCCCC(=O)NCCOCCOCCN3CCN(CC(=O)N4c5ccccc5C(=O)Nc5cccnc54)CC3)c3ccc(S(=O)(=O)O)cc3C2(C)C)C(C)(C)c2cc(S(=O)(=O)O)ccc21` (configuration not stated), the E [1] was 0.6, the Dissociation rate constant [6] was 0.00039 1/S and the Ki [3] was 135 nM. The Dissociation rate constant [7] was 0.000353 1/S and the Kd [5] was 35.7 nM.

In the case of `O=C(CCC1=[N+]2C(=Cc3ccc(-c4cccs4)n3[B-]2(F)F)C=C1)NCCOCCOCCOCCOCCOCCOCCN1CCN(CC(=O)N2c3ccccc3C(=O)Nc3cccnc32)CC1`, the E [1] is reported as 0.53, the Dissociation rate constant [8] is reported as 0.00023 1/S and the Ki [3] is reported as 8.9 nM. For the same compound, the Dissociation rate constant [9] was 0.00025 1/S and the Kd [5] was 4.1 nM.

With `CNC(=O)CCC1=[N+]2C(=Cc3ccc(-c4cccs4)n3[B-]2(F)F)C=C1` the Ki [3] was > 1000 nM.

`O=C(CCC1=[N+]2C(=Cc3ccc(-c4cccs4)n3[B-]2(F)F)C=C1)NCCN1CCN(CC(=O)N2c3ccccc3C(=O)Nc3cccnc32)CC1` was tested, and the Ki [3] was > 1000 nM.

With `O=C(CCC1=[N+]2C(=Cc3ccc(-c4cccs4)n3[B-]2(F)F)C=C1)NCCCCCCN1CCN(CC(=O)N2c3ccccc3C(=O)Nc3cccnc32)CC1` the E [1] was 0.63, the Dissociation rate constant [8] was 0.0002 1/S and the Ki [3] was 8.8 nM. For the same compound, the Dissociation rate constant [9] was 7.2e-05 1/S and the Kd [5] was 12.9 nM.

For `O=C(CCC1=[N+]2C(=Cc3ccc(-c4cccs4)n3[B-]2(F)F)C=C1)NCCOCCOCCN1CCN(CC(=O)N2c3ccccc3C(=O)Nc3cccnc32)CC1`, the E [1] was 0.6, the Ki [3] was 45.4 nM and the Dissociation rate constant [10] was 0.00025 1/S. The Dissociation rate constant [11] was 0.00013 1/S and the Kd [5] was 21.9 nM.

For `O=C(CCCCCNC(=O)CCC1=[N+]2C(=Cc3ccc(-c4cccs4)n3[B-]2(F)F)C=C1)NCCCCCC(=O)NCCCCN1CCN(CC(=O)N2c3ccccc3C(=O)Nc3cccnc32)CC1`, the E [1] was 0.51, the Ki [3] was 55.1 nM and the Dissociation rate constant [10] was 0.00144 1/S. For the same compound, the Dissociation rate constant [11] was 0.00146 1/S and the Kd [5] was 12.7 nM.
